The values below come from US10913736B2 (UNIVERSITY OF WASHINGTON, priority 2014, dated 2021).

Values joined by “and” are separate entries in the source; they are usually repeats but may differ in a detail not shown here. Equal entries are not always repeated. Where two headings read alike, the source gives them in different places. A value given as a limit tells only on which side of the number the result lay.

Test [1] addresses MetRS (T. brucei) (Trypanosoma brucei brucei, UniProt Q38C91). In words: MetRS (T. brucei) ATP depletion assay using Kinase-Glo. It counts as biochemical.
Test [2] concerns T. brucei. As to the kind of experiment: Growth inhibition assay of T. brucei cell cultures (Alamar Blue, 48 h). In kind it is cell-based.
Setting [3] is: Trypanosoma brucei; read-out: B) T. brucei EC50.

Sequence of MetRS (T. brucei) (Q38C91 entry or part of it): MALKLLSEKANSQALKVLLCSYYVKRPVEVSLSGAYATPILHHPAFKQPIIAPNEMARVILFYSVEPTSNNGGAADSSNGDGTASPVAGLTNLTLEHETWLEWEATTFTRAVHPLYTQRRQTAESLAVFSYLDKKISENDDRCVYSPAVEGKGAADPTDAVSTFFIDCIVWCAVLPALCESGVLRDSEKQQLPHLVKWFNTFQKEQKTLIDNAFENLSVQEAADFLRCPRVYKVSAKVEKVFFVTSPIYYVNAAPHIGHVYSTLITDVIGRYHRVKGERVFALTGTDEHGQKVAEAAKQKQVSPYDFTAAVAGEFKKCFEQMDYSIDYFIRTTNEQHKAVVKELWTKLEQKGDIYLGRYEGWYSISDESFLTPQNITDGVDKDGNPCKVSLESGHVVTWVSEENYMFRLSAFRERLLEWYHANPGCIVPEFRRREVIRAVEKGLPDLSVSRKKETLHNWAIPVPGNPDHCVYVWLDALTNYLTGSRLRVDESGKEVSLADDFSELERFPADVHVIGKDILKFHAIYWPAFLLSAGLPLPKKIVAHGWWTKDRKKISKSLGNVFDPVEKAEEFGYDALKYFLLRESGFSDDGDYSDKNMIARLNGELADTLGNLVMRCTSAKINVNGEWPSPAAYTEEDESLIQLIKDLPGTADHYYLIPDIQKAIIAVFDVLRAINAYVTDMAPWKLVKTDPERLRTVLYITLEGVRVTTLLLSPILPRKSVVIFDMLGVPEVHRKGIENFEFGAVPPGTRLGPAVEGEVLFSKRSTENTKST

A word on the IC50: it is the point on the concentration scale where inhibition reaches its midpoint. A lower IC50 goes with higher potency. One may read the EC50 as the concentration that produces a half-maximal response. `O=C(CCNCc1cc(Cl)cc(Cl)c1)Nc1nc2ncccc2[nH]1` [Compound 1576, 3-(3,5-dichlorobenzylamino)-N-(3H-imidazo[4,5-b]pyridin-2-yl)propanamide]: the IC50 in test [1] was 0.109 µM. The concentration giving a half-maximal response (EC50) in test [2] (setting [3]) was found to be 0.403 µM.
`CC(C)(CNCc1cc(Cl)cc(Cl)c1)CNc1nc2cccnc2[nH]1` [Compound 1641, N1-(3,5-dichlorobenzyl)-N3-(1H-imidazo[4,5-b]pyridin-2-yl)-2,2-dimethylpropane-1,3-diamine]: the IC50 in test [1] is < 0.049 µM and 0.138 µM. Moreover, the results for the concentration for a half-maximal effect (EC50) in test [2] (setting [3]) and in test [2] (read-out: B) T. brucei EC50) were 7.65 µM and 8.35 µM, respectively.
On to `O=C(COc1ccc(Cl)cc1Cl)NCc1nc2ccccc2[nH]1` [Compound 1671, N-(1H-1,3-benzodiazol-2-ylmethyl)-2-(2,4-dichlorophenoxy)acetamide], for which inhibition in test [1] was half-maximal at 1.27 µM (IC50). Besides, the concentration giving a half-maximal response (EC50) in test [2] (setting [3]) was over 20 µM.
With `O=C(COc1ccc(Cl)cc1Cl)NCc1cc2ccccc2[nH]1` [Compound 1674, 2-(2,4-dichlorophenoxy)-N-(1H-indol-2-ylmethyl)acetamide], in test [1], the half-maximal inhibitory concentration (IC50) was 23 µM. In addition, the concentration giving a half-maximal response (EC50) in test [2] (setting [3]) was over 20 µM.
Compound `O=C(COc1ccc(Cl)cc1Cl)NCCc1nc2ccccc2[nH]1` [Compound 1675, N-[2-(1H-1,3-benzodiazol-2-yl)ethyl]-2-(2,4-dichlorophenoxy)acetamide] gave a 50% inhibitory concentration (IC50) in test [1] of 8.23 µM. In addition, the EC50 in test [2] (setting [3]) was over 20 µM.
On the same counts, the results for `O=C(NCc1nc2cccnc2[nH]1)OCc1ccccc1` [Compound 1699, benzyl N-{3H-imidazo[4,5-b]pyridin-2-ylmethyl}carbamate] are 13.1 µM and over 10 µM.
For `O=C(NCCc1ccc(Cl)cc1Cl)NCc1nc2ccccc2[nH]1` [Compound 1702, 1-((1H-benzo[d]imidazol-2-yl)methyl)-3-(2,4-dichlorophenethyl)urea], the IC50 in test [1] was 0.009 µM and 0.011 µM. For the same compound, the concentration giving a half-maximal response (EC50) in test [2] (setting [3]) is 4.97 µM.
On to `N[C@@H](CC(=O)NCc1nc2ccccc2[nH]1)Cc1ccc(F)cc1` [Compound 1703, (3R)-3-amino-N-(1H-1,3-benzodiazol-2-ylmethyl)-4-(4-fluorophenyl)butanamide], for which the IC50 in test [1] was 12.1 µM. In addition, in test [2] (setting [3]), the half-maximal effective concentration (EC50) was over 10 µM.
The compound `O=C(CCOc1ccc(Cl)cc1Cl)NCc1nc2cccnc2[nH]1` [Compound 1704, 3-(2,4-dichlorophenoxy)-N-{3H-imidazo[4,5-b]pyridin-2-ylmethyl}propanamide] showed a 50% inhibitory concentration (IC50) in test [1] of 0.28 µM. Also, the 50% effective concentration (EC50) in test [2] (setting [3]) turned out to be 8.61 µM.
In test [1], `N[C@H](CC(=O)NCc1nc2ccccc2[nH]1)Cc1ccc(Cl)cc1Cl` [Compound 1726, (3S)-3-amino-N-(1H-1,3-benzodiazol-2-ylmethyl)-4-(2,4-dichlorophenyl)butanamide] showed a concentration for half-maximal inhibition (IC50) of 2.38 µM. The EC50 in test [2] (setting [3]) was found to be 8.02 µM.
In turn, `CN(Cc1nc2ccccc2[nH]1)C(=O)CCOc1ccc(Cl)cc1Cl` [Compound 1727, N-(1H-1,3-benzodiazol-2-ylmethyl)-3-(2,4-dichlorophenoxy)-N-methylpropanamide] displayed an IC50 in test [1] of 5.09 µM. Also, the EC50 in test [2] (setting [3]) is over 20 µM.
On the same counts, the results for `CN(Cc1nc2ccccc2[nH]1)C(=O)OCCc1ccc(Cl)cc1Cl` [Compound 1728, 2-(2,4-dichlorophenyl)ethyl N-(1H-1,3-benzodiazol-2-ylmethyl)-N-methylcarbamate] are over 10 µM and over 20 µM.
On the same counts, the results for `O=C(/C=C\Oc1ccc(Cl)cc1Cl)NCc1nc2ccccc2[nH]1` [Compound 1730, (Z)—N-((1H-benzo[d]imidazol-2-yl)methyl)-3-(2,4-dichlorophenoxy)acrylamide] are 0.142 µM and 0.723 µM.
In turn, `O=C(Cc1ccc(Cl)cc1Cl)N1CCCC(c2nc3ccccc3[nH]2)C1` (stereo not shown) [Compound 1731, 1-(3-(1H-benzo[d]imidazol-2-yl)piperidin-1-yl)-2-(2,4-dichlorophenyl) ethanone] displayed an IC50 in test [1] of 5 µM. Further, the EC50 in test [2] (setting [3]) was over 20 µM.
On the same counts, the results for `O=C(Cc1cc(Cl)cc(Cl)c1)N1CCCC(c2nc3ccccc3[nH]2)C1` (stereo not shown) [Compound 1732, 1-(3-(1H-benzo[d]imidazol-2-yl)piperidin-1-yl)-2-(3,5-dichlorophenyl)ethanone] are 0.288 µM and over 5 µM.
As to `O=C(Cc1cc(Cl)cc(Cl)c1)N1CCCC(c2nc3c(Cl)cccc3[nH]2)C1` (stereo not shown) [Compound 1733, 1-(3-(4-chloro-1H-benzo[d]imidazol-2-yl)piperidin-1-yl)-2-(3,5-dichlorophenyl) ethanone], the IC50 in test [1] is 0.926 µM. In addition, the EC50 in test [2] (setting [3]) was found to be 8.81 µM.
In test [1], `O=C1CN(Cc2ccccc2Cl)CCN1Cc1nc2ccccc2[nH]1` [Compound 1735, 1-(1H-1,3-benzodiazol-2-ylmethyl)-4-[(2-chlorophenyl)methyl]piperazin-2-one] registered an IC50 of over 10 µM. Moreover, the EC50 in test [2] (setting [3]) was over 20 µM.
For `O=C1CN(Cc2cccc(Cl)c2)CCN1Cc1nc2ccccc2[nH]1` [Compound 1736, 1-((1H-benzo[d]imidazol-2-yl)methyl)-4-(3-chlorobenzyl)piperazin-2-one] the same measures were over 10 µM and over 20 µM.
As to `O=C(CCOc1ccc(Cl)cc1Cl)NC1(c2nc3ccccc3[nH]2)CC1` [Compound 1738, N-(1-(1H-benzo[d]imidazol-2-yl)cyclopropyl)-3-(2,4-dichlorophenoxy)propanamide], the concentration for half-maximal inhibition (IC50) in test [1] was over 10 µM. In test [2] (setting [3]), the 50% effective concentration (EC50) was over 20 µM.
For `O=C(NCCc1ccc(Cl)cc1Cl)OCc1nc2ccccc2[nH]1` [Compound 1739, [2-(2,4-Dichloro-phenyl)-ethyl]-carbamic acid 1H-benzoimidazol-2-ylmethyl ester] the same measures were 1.45 µM and over 10 µM.
On the same counts, the results for `O=C(CCOc1ccc(Cl)cc1Cl)NCc1nc2ccc(F)cc2[nH]1` [Compound 1740, 3-(2,4-dichlorophenoxy)-N-((6-fluoro-1H-benzo[d]imidazol-2-yl)methyl)propanamide] are 0.549 µM and over 10 µM.
With `O=C(NCc1nc2ccc(F)cc2[nH]1)OCCc1ccc(Cl)cc1Cl` [Compound 1741, (6-Fluoro-1H-benzoimidazol-2-ylmethyl)-carbamic acid 2-(2,4-dichloro-phenyl)-ethyl ester], the midpoint of inhibition in test [1], the IC50, lay at 0.132 µM. The EC50 in test [2] (setting [3]) was 4.22 µM.
For the compound `O=C(Cc1cc(Cl)cc(Cl)c1)N1CCCC(c2nc3cc(F)ccc3[nH]2)C1` (stereo not shown) [Compound 1744, 2-(3,5-dichlorophenyl)-1-(3-(5-fluoro-1H-benzo[d]imidazol-2-yl)piperidin-1-yl)ethanone], 0.184 µM corresponded to half-maximal inhibition in test [1] (IC50). Also, the concentration giving a half-maximal response (EC50) in test [2] (setting [3]) was 3.26 µM.
On to `O=C(Cc1cc(Cl)cc(Cl)c1)N1CCCC(c2nc3cc(Cl)c(Cl)cc3[nH]2)C1` (stereo not shown) [Compound 1745, 1-(3-(5,6-dichloro-1H-benzo[d]imidazol-2-yl)piperidin-1-yl)-2-(3,5-dichlorophenyl)ethanone], for which, in test [1], the IC50 came out at 0.812 µM. In addition, the EC50 in test [2] (setting [3]) worked out at 4.6 µM.
On the same counts, the results for `O=C(Cc1cc(Cl)cc(Cl)c1)N1CCCC(c2nc3cc(Cl)c(F)cc3[nH]2)C1` (stereo not shown) [Compound 1746, 1-(3-(5-chloro-6-fluoro-1H-benzo[d]imidazol-2-yl)piperidin-1-yl)-2-(3,5-dichlorophenyl)ethanone] are 0.138 µM and 3.33 µM.
For `O=C1CN(Cc2ccc(Cl)cc2Cl)CCN1Cc1nc2ccccc2[nH]1` [Compound 1747, 1-((1H-benzo[d]imidazol-2-yl)methyl)-4-(2,4-dichlorobenzyl)piperazin-2-one] the same measures were over 10 µM and over 10 µM.
`O=C1CN(Cc2cc(Cl)cc(Cl)c2)CCN1Cc1nc2ccccc2[nH]1` [Compound 1748, 1-((1H-benzo[d]imidazol-2-yl)methyl)-4-(3,5-dichlorobenzyl)piperazin-2-one] came in with an IC50 in test [1] of over 10 µM. Further, the EC50 in test [2] (setting [3]) is over 10 µM.
Compound `Clc1ccc(Cn2cc(Cc3nc4ccccc4[nH]3)nn2)c(Cl)c1` [Compound 1752, 2-((1-(2,4-dichlorobenzyl)-1H-1,2,3-triazol-4-yl)methyl)-1H-benzo[d]imidazole] gave an IC50 in test [1] of 1.36 µM. Further, the EC50 in test [2] (setting [3]) was over 10 µM.
Compound `COC(=O)[C@H](Cc1ccc(Cl)cc1Cl)NC(=O)NCc1nc2ccccc2[nH]1` [Compound 1755, methyl (2S)-2-{[(1H-1,3-benzodiazol-2-ylmethyl)carbamoyl]amino}-3-(2,4-dichlorophenyl)propanoate] yielded an IC50 in test [1] of 1.39 µM. For the same compound, the half-maximal effective concentration (EC50) in test [2] (setting [3]) was over 10 µM.
In turn, `O=C(Cc1cc2cc(Cl)cc(Cl)c2o1)NCc1nc2ccccc2[nH]1` [Compound 1756, N-((1H-benzo[d]imidazol-2-yl)methyl)-2-(5,7-dichlorobenzofuran-2-yl)acetamide] yielded an IC50 in test [1] of 3.72 µM. Also, in test [2] (setting [3]), the EC50 was over 10 µM.
As for `Clc1cc(Cl)cc(CCN2CCCC(c3nc4nc(Cl)ccc4[nH]3)C2)c1` (stereo not shown) [Compound 1812, 5-chloro-2-(1-(3,5-dichlorophenethyl)piperidin-3-yl)-1H-imidazo[4,5-b]pyridine], the concentration giving a half-maximal response (EC50) in test [2] (setting [3]) was determined as 3.76 µM.
In the case of `O=C(Nc1cc(Cl)cc(Cl)c1)[C@H]1CCCN(c2nc3nc(Cl)ccc3[nH]2)C1` [Compound 1888, (S)-1-(5-chloro-1H-imidazo[4,5-b]pyridin-2-yl)-N-(3,5-dichlorophenyl)piperidine-3-carboxamide], the concentration giving a half-maximal response (EC50) in test [2] (setting [3]) was over 20 µM.
Take `O=C(N[C@H]1CCCN(c2nc3nc(Cl)ccc3[nH]2)C1)c1cc(Cl)cc(Cl)c1` [Compound 1889]: the half-maximal effective concentration (EC50) in test [2] (setting [3]) is over 20 µM.
Regarding `O=C(CO)N(CCCNc1nc2ccc(F)nc2[nH]1)Cc1cc(Cl)cc(Cl)c1` [Compound 1973, N-(3,5-dichlorobenzyl)-N-(3-(5-fluoro-3H-imidazo[4,5-b]pyridin-2-ylamino)propyl)-2-hydroxyacetamide], in test [1], the midpoint of inhibition, the IC50, lay at 0.011 µM.
`NC(=O)N(CCCNc1nc2ccc(F)nc2[nH]1)Cc1cc(Cl)cc(Cl)c1` [Compound 1974, 1-(3,5-dichlorobenzyl)-1-(3-(5-fluoro-3H-imidazo[4,5-b]pyridin-2-ylamino)propyl)urea] came in with a half-inhibitory concentration (IC50) in test [1] of 0.007 µM.
As to `Clc1cc(Cl)c2ccn(CCCNc3nc4ccc(Cl)nc4[nH]3)c2c1` [Compound 1996, 5-chloro-N-[3-(4,6-dichloro-1H-indol-1-yl)propyl]-3H-imidazo[4,5-b]pyridin-2-amine], the 50% effective concentration (EC50) in test [2] (setting [3]) worked out at 5.3 µM.
